According to ChEMBL document CHEMBL1201862, “PubChem BioAssay data set” (2004):
Activity calls are given as the source filed them.

Tests used:
[1] = target: T1, Rac GTPase-activating protein 1 (Homo sapiens, UniProt Q9H0H5); assay: blockers of MgcRacGAP-driven Rac1 GTP hydrolysis – biochemical, ADP Hunter fluorescence, primary and confirmatory, confirmation (AID 624330); assay type: functional
T1 sequence (Q9H0H5 whole entry): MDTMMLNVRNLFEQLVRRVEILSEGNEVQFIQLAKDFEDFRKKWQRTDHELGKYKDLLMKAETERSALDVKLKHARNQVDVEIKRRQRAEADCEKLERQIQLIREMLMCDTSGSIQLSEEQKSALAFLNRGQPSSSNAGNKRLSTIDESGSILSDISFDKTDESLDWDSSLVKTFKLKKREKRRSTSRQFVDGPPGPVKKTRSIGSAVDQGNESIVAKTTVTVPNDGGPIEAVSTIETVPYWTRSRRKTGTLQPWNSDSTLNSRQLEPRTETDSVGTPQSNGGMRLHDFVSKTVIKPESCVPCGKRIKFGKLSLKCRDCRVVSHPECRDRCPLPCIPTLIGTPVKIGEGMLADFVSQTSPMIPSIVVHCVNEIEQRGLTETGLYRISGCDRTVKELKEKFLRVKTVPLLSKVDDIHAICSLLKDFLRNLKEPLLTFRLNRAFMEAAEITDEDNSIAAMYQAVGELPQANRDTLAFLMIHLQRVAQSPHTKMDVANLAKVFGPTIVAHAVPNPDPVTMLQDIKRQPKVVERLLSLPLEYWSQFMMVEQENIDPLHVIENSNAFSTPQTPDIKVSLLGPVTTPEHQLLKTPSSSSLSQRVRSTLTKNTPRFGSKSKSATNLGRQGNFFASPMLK

[2] = target: Dual specificity tyrosine-phosphorylation-regulated kinase 1A (Rattus norvegicus, UniProt Q63470); assay type: biochemical, Homo sapiens
Large T antigen = Large T antigen (Simian virus 40, UniProt P03070); assay type: functional, Betapolyomavirus macacae;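 further: Confirmatory-stage PubChem screen for compounds that inhibit SV40 T antigen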
Large T antigen, sequence (P03070 whole entry): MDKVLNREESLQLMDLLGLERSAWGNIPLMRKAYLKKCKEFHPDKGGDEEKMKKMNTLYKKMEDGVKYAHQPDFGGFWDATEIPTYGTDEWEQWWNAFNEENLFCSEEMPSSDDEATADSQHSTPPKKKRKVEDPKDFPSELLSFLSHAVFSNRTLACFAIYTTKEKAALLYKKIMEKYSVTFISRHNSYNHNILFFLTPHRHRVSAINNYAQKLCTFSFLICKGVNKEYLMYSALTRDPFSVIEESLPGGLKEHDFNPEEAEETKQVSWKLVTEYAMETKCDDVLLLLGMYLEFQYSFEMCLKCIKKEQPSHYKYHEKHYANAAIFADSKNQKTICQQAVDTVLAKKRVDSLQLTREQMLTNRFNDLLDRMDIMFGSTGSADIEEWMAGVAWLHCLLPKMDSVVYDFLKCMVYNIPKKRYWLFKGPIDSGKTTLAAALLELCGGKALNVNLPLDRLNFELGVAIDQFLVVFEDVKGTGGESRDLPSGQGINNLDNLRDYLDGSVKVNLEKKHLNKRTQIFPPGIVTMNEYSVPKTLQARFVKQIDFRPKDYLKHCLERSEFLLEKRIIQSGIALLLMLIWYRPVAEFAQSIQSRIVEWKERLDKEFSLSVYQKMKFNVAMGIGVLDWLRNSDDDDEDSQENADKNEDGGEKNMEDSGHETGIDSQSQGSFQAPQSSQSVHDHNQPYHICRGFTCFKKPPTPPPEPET

[3] = Luminescence Cell-Based Dose Retest to Confirm Inhibitors of Cancer Stem Cells. [Related pubchem assays (depositor defined):AID2717, AID2721]; assay type: functional; settings: Homo sapiens
[4] = target: 5-hydroxytryptamine receptor 5A (Homo sapiens, UniProt P47898); assay: Counterscreen for agonists of OPRM1-OPRD1 heterodimerization: luminescence-based cell-based high throughput dose response assay to identify agonists of 5-hydroxytryptamine (serotonin) 5A receptor (HTR5A). [Related pubchem assays (depositor defined):AID504326, AID504355, AID504692, AID504904, AID504905]; assay type: functional
5-hydroxytryptamine receptor 5A, sequence (P47898 whole entry): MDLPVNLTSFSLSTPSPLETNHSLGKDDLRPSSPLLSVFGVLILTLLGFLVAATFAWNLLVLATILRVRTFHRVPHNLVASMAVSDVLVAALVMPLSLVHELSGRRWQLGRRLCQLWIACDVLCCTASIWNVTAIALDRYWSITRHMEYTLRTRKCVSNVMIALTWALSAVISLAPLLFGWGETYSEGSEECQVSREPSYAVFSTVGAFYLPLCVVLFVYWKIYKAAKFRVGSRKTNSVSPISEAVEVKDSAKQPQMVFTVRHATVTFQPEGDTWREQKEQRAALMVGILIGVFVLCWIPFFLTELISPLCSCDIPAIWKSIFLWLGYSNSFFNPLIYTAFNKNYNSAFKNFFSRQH

[5] = blockers of bursicon-stimulated LGR2 cAMP reporter – cell-based, HEK293, CRE-luciferase reporter, cherry pick, set 2, dose response (AID 743343); assay type: functional;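 further: transfected cells were stimulated with diluted bursicon conditioned medium after compound addition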
[6] = luciferase reporter signal suppression in cells – H4 neuroglioma cells, luminescence, dose response (AID 1990); assay type: functional, cell-based
Mu-type opioid receptor = Mu-type opioid receptor (Homo sapiens, UniProt P35372); assay: (§1) Counterscreen for agonists of heterodimerization of the mu 1 (OPRM1) and delta 1 (OPRD1) opioid receptors: Luminescence-based cell-based high throughput dose response assay to identify agonists of OPRM1 homodimerization.; assay type: functional
Mu-type opioid receptor, sequence (P35372 whole entry): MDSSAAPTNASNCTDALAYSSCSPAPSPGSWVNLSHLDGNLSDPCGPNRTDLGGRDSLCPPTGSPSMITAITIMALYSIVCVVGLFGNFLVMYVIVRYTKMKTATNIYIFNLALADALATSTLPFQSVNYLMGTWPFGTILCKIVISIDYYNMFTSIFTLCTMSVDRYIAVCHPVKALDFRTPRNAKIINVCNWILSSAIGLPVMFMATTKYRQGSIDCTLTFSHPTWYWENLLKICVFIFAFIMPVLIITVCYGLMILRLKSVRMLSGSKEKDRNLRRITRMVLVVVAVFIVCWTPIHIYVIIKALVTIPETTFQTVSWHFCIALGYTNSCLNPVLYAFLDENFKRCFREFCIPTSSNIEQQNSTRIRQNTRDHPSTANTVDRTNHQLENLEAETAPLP

[7] = toxicity toward HepG2 liver cells – cell-based, plate reader, cherry-pick, antagonist series, cytotoxicity control, dose response (AID 743416); assay type: functional
[8] = Luminescence Cell-Based Dose Response HTS to Identify Inhibitors of 5'UTR Stem-Loop Driven Prion Protein mRNA Translation in H4 Neuroglioblastoma Cells. [Related pubchem assays: 1827 (Project Summary), 1813 (Primary HTS)]; assay type: functional
[9] = viability loss in HEK293 cells – cell-based, plate reader, cherry-picked samples, cytotoxicity control, dose response (AID 743446); assay type: functional
[10] = A549 cell cytotoxicity, dose response, cytotoxicity control, plate reader, cherry-pick, antagonist series (AID 743412); assay type: functional, cell-based
[11] = alpha-synuclein stem-loop luciferase translation blockers – H4 neuroglioma cells, luminescence, confirmation (AID 1988); assay type: functional, cell-based
[12] = blockade of melanocortin 4 receptor signaling – cell-based, plate reader, cherry pick, counter-screen for LGR2 antagonist project, dose response (AID 743444); assay type: functional;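 further: transfected HEK 293 cells stimulated with alpha-MSH peptide; potency of inhibitors of the alpha-MSH evoked signal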
[13] = target: Delta-type opioid receptor (Homo sapiens, UniProt P41143); assay: as §1, with “of OPRD1” for “of OPRM1”, “homodimerization. [Related pubchem assays (depositor defined):AID504326, AID504355, AID504692, AID504904, AID504905]” for “homodimerization.”; assay type: functional
Delta-type opioid receptor, sequence (P41143 whole entry): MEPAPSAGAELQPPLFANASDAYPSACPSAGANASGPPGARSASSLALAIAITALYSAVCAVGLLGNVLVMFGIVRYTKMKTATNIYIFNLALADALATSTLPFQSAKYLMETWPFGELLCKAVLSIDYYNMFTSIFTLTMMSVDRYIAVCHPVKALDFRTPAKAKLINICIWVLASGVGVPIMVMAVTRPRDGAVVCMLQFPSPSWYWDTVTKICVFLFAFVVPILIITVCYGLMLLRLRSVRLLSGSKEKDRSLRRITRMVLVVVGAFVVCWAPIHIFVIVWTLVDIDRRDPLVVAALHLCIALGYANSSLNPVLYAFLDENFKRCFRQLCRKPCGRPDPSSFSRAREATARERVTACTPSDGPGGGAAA

INS1 = assay: INS-1E survival protection against cytokine death – cell-based, luminescence, retest, dose response (AID 449756); assay type: functional; settings: Rattus norvegicus;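 further: cell death triggered by IL-1 beta plus TNF-alpha plus IFN-gamma mixture; protective hits raise ATP signal compared with cytokine alone wells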
Escherichia coli [14] = assay: microbe, parasite or virus in culture
Escherichia coli [15] = assay: microbe, parasite or virus in culture; remark: listed apart in the source
[16] = NIH3T3 cell viability loss – ATP luminescence, mouse fibroblasts, counter-screen, dose response (AID 2010); assay type: functional, cell-based;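 further: cells exposed to compound for about 90 hours before reading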
[17] = Trypanosoma cruzi growth suppression in host cells – NIH3T3 host cells, beta-gal luminescence, confirmation (AID 2044); assay type: functional, cell-based;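 further: intracellular parasites grown in NIH/3T3 mouse fibroblasts as host cells; luminescent beta-galactosidase reporter signal from transgenic T. cruzi replicating inside host cells; inhibitors lower the luminescence signal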

## C=CCSC1=NC(=O)/C(=C/c2cccs2)S1
[1]
  IC50: 29.7 µM (active)
[2]
  AC50: 8.3 µM (active)
Large T antigen
  IC50: 40.8 µM (active)

## COc1ccc(C(C)NCCC(c2ccc(OC(C)C)cc2)c2ccccc2OC)cc1 (stereo not given)
[3]
  AC50: 4.45 µM (active)
[4]
  EC50: > 92.5 µM (inactive)
[5]
  AC50: 23.2 µM (active)
[6]
  EC50: > 120 µM (not active)
Mu-type opioid receptor
  EC50: > 92.5 µM (inactive)
[7]
  AC50: 6.89 µM (active)
[8]
  EC50: 10.6 µM (active)
[9]
  AC50: 11.8 µM (active)
[10]
  AC50: 6.71 µM (active)
[11]
  EC50: 7.93 µM (active)
[12]
  AC50: 28.8 µM (active)
[13]
  EC50: > 92.5 µM (inactive)
INS1
  AC50: 7.14 µM (active)

## O=[N+]([O-])c1ccc(-c2cc[nH]n2)o1
Escherichia coli [14]
  AC50: 12.5 µM (active)
Escherichia coli [15]
  AC50: 24 µM (active)
[16]
  EC50: > 60 µM (not active)
[17]
  EC50: 0.202 µM (active)
